Earlier results in patent US20040029723A1, “Novel aminophosphonium compounds” (Clariant GmbH, priority 1999, published 2004).

Details: background statement, no test or data described

CCN(CC)[P+](N(CC)CC)(N(CC)CC)N(CC)CC.[Br-] [Tetrakis(diethylamino)phosphonium Bromide]
dermal toxicity: very high
